PubChem BioAssay (NCI)
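1) Cells in 96-well plates. 2) Compound, 48 h, 5 concentrations. 3) Linear interpolation between surrounding doses. 4) Unreached endpoint = highest concentration. Abbreviation: GI50, concentration required for 50% inhibition of growth. TGI: total growth inhibition.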

Assays:
Experiment in all cases: NCI anticancer screen, dose series, 48 h
SF-268 CNS = tested on: SF-268 CNS
786-0 renal = tested on: 786-0 renal
RPMI-8226 leukemia = tested on: RPMI-8226 leukemia
T-47D breast = tested on: T-47D breast
SF-295 CNS = tested on: SF-295 CNS
HCC-2998 colon = tested on: HCC-2998 colon
HCT-15 colon = tested on: HCT-15 colon
HT29 colon = tested on: HT29 colon
MDA-MB-435 = tested on: MDA-MB-435
ACHN renal = tested on: ACHN renal
SK-MEL-5 melanoma = tested on: SK-MEL-5 melanoma
SK-OV-3 ovarian = tested on: SK-OV-3 ovarian
HOP-92 NSCLC = tested on: HOP-92 NSCLC
KM12 colon = tested on: KM12 colon
SN12C renal = tested on: SN12C renal
A498 renal = tested on: A498 renal
OVCAR-5 ovarian = tested on: OVCAR-5 ovarian
SK-MEL-2 melanoma = tested on: SK-MEL-2 melanoma
NCI-H460 lung = tested on: NCI-H460 lung
BT-549 breast = tested on: BT-549 breast
OVCAR-3 ovarian = tested on: OVCAR-3 ovarian
HOP-62 NSCLC = tested on: HOP-62 NSCLC
DU-145 prostate = tested on: DU-145 prostate
NCI-H23 lung = tested on: NCI-H23 lung
SNB-75 CNS = tested on: SNB-75 CNS
OVCAR-8 ovarian = tested on: OVCAR-8 ovarian
SR leukemia = tested on: SR leukemia
MCF7 breast = tested on: MCF7 breast
A549 NSCLC = tested on: A549 NSCLC
LOX IMVI melanoma = tested on: LOX IMVI melanoma
NCI/ADR-RES ovarian = tested on: NCI/ADR-RES ovarian
COLO 205 colon = tested on: COLO 205 colon
EKVX NSCLC = tested on: EKVX NSCLC
CCRF-CEM leukemia = tested on: CCRF-CEM leukemia
HCT-116 colon = tested on: HCT-116 colon
SF-539 CNS = tested on: SF-539 CNS
M14 melanoma = tested on: M14 melanoma
IGROV1 ovarian = tested on: IGROV1 ovarian
K-562 leukemia = tested on: K-562 leukemia
SK-MEL-28 melanoma = tested on: SK-MEL-28 melanoma
MOLT-4 leukemia = tested on: MOLT-4 leukemia
PC-3 prostate = tested on: PC-3 prostate
CAKI-1 renal = tested on: CAKI-1 renal
MALME-3M melanoma = tested on: MALME-3M melanoma
NCI-H522 lung = tested on: NCI-H522 lung
OVCAR-4 ovarian = tested on: OVCAR-4 ovarian
UO-31 renal = tested on: UO-31 renal
UACC-62 melanoma = tested on: UACC-62 melanoma
MDA-MB-231 breast = tested on: MDA-MB-231 breast
RXF 393 renal = tested on: RXF 393 renal
NCI-H226 lung = tested on: NCI-H226 lung
SW-620 colon = tested on: SW-620 colon
UACC-257 melanoma = tested on: UACC-257 melanoma
SNB-19 CNS = tested on: SNB-19 CNS
HL-60(TB) leukemia = tested on: HL-60(TB) leukemia
HS 578T breast = tested on: HS 578T breast
U251 CNS = tested on: U251 CNS
TK-10 renal = tested on: TK-10 renal

COc1cc2c(O[C@@H]3OC[C@H](OC(C)=O)[C@H](OC(C)=O)[C@H]3O)c3c(c(-c4ccc5c(c4)OCO5)c2cc1OC)C(=O)OC3
GI50 (SF-268 CNS): 1470 nM
TGI (SF-268 CNS): > 10000 nM
GI50 (786-0 renal): 2030 nM
TGI (786-0 renal): > 7810 nM
GI50 (RPMI-8226 leukemia): 64.7 nM
TGI (RPMI-8226 leukemia): > 3750 nM
GI50 (T-47D breast): 115 nM
TGI (T-47D breast): > 10000 nM
GI50 (SF-295 CNS): 270 nM
TGI (SF-295 CNS): 923 nM
GI50 (HCC-2998 colon): 1560 nM
TGI (HCC-2998 colon): > 10000 nM
GI50 (HCT-15 colon): 725 nM
TGI (HCT-15 colon): > 10000 nM
GI50 (HT29 colon): 165 nM
TGI (HT29 colon): > 10000 nM
GI50 (MDA-MB-435): 359 nM
TGI (MDA-MB-435): 3060 nM
GI50 (ACHN renal): 566 nM
TGI (ACHN renal): > 10000 nM
GI50 (SK-MEL-5 melanoma): 57.2 nM
TGI (SK-OV-3 ovarian): > 10000 nM
GI50 (HOP-92 NSCLC): 178 nM
TGI (HOP-92 NSCLC): 1400 nM
GI50 (KM12 colon): 471 nM
TGI (KM12 colon): > 10000 nM
GI50 (SN12C renal): 284 nM
TGI (SN12C renal): > 10000 nM
GI50 (A498 renal): 1130 nM
TGI (A498 renal): > 10000 nM
GI50 (OVCAR-5 ovarian): 112 nM
TGI (OVCAR-5 ovarian): > 10000 nM
GI50 (SK-MEL-2 melanoma): 1050 nM
TGI (SK-MEL-2 melanoma): 6910 nM
GI50 (NCI-H460 lung): 255 nM
TGI (NCI-H460 lung): > 10000 nM
GI50 (BT-549 breast): 72.2 nM
TGI (BT-549 breast): > 7760 nM
GI50 (OVCAR-3 ovarian): > 5480 nM
TGI (OVCAR-3 ovarian): > 10000 nM
GI50 (HOP-62 NSCLC): 797 nM
TGI (HOP-62 NSCLC): > 10000 nM
GI50 (DU-145 prostate): 754 nM
TGI (DU-145 prostate): > 10000 nM
GI50 (NCI-H23 lung): 3240 nM
TGI (NCI-H23 lung): > 10000 nM
GI50 (SNB-75 CNS): 274 nM
TGI (SNB-75 CNS): > 5890 nM
GI50 (OVCAR-8 ovarian): 189 nM
TGI (OVCAR-8 ovarian): > 10000 nM
GI50 (SR leukemia): 59 nM
TGI (SR leukemia): > 10000 nM
GI50 (MCF7 breast): 684 nM
TGI (MCF7 breast): > 10000 nM
GI50 (A549 NSCLC): 613 nM
TGI (A549 NSCLC): > 10000 nM
GI50 (LOX IMVI melanoma): 23.3 nM
TGI (LOX IMVI melanoma): 90.8 nM
GI50 (NCI/ADR-RES ovarian): 1830 nM
TGI (NCI/ADR-RES ovarian): > 10000 nM
GI50 (COLO 205 colon): 76.4 nM
TGI (COLO 205 colon): > 10000 nM
GI50 (EKVX NSCLC): 859 nM
TGI (EKVX NSCLC): > 10000 nM
GI50 (CCRF-CEM leukemia): 498 nM
TGI (CCRF-CEM leukemia): > 10000 nM
GI50 (HCT-116 colon): 167 nM
TGI (HCT-116 colon): > 10000 nM
GI50 (SF-539 CNS): 437 nM
TGI (SF-539 CNS): > 10000 nM
GI50 (M14 melanoma): 192 nM
TGI (M14 melanoma): 649 nM
GI50 (IGROV1 ovarian): 400 nM
TGI (IGROV1 ovarian): > 10000 nM
GI50 (K-562 leukemia): 436 nM
TGI (K-562 leukemia): > 10000 nM
GI50 (SK-MEL-28 melanoma): 264 nM
TGI (SK-MEL-28 melanoma): 2870 nM
GI50 (MOLT-4 leukemia): 437 nM
TGI (MOLT-4 leukemia): > 10000 nM
GI50 (PC-3 prostate): 870 nM
TGI (PC-3 prostate): > 10000 nM
GI50 (CAKI-1 renal): 93.1 nM
TGI (CAKI-1 renal): > 10000 nM
GI50 (MALME-3M melanoma): 565 nM
TGI (MALME-3M melanoma): > 5340 nM
GI50 (NCI-H522 lung): 252 nM
TGI (NCI-H522 lung): > 10000 nM
GI50 (OVCAR-4 ovarian): > 3120 nM
TGI (OVCAR-4 ovarian): > 10000 nM
GI50 (UO-31 renal): 1780 nM
TGI (UO-31 renal): 6740 nM
GI50 (UACC-62 melanoma): 155 nM
TGI (UACC-62 melanoma): 517 nM
GI50 (MDA-MB-231 breast): 75.4 nM
TGI (MDA-MB-231 breast): 1800 nM
GI50 (RXF 393 renal): 267 nM
TGI (RXF 393 renal): > 10000 nM
GI50 (NCI-H226 lung): 253 nM
TGI (NCI-H226 lung): > 10000 nM
GI50 (SW-620 colon): 491 nM
TGI (SW-620 colon): > 10000 nM
GI50 (UACC-257 melanoma): 276 nM
TGI (UACC-257 melanoma): 1170 nM
GI50 (SNB-19 CNS): > 9570 nM
TGI (SNB-19 CNS): > 10000 nM
GI50 (HL-60(TB) leukemia): 433 nM
TGI (HL-60(TB) leukemia): > 10000 nM
GI50 (HS 578T breast): 3990 nM
TGI (HS 578T breast): > 10000 nM
GI50 (U251 CNS): 1160 nM
TGI (U251 CNS): > 10000 nM
TGI (TK-10 renal): > 10000 nM
